# Data from US20240294551A1 (AMGEN INC., priority 2022, published 2024).
# Counter-ions that a name gives are not always drawn. Like-named read-outs stand apart in the source and are kept apart here.
# Assays:
# [1] = test system: Phosphorylation of ERK1/2 in AsPC-1 cells; assay: Phospho-ERK1/2 MSD Assay; format: cell-based, human
# Summary of the method: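 Read-out: MSD electrochemiluminescent detection of phosphorylated ERK1/2 in whole-cell lysates, fitted to a 4-parameter logistic curve for IC50. Prior to lysis, AsPC-1 cells (25,000 per well) received a 2 h compound dose-response at 37 °C.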
# AsPC-1 cells = assay: AsPC-1 CTG Assay (CellTiter-Glo cell viability); format: cell-based, human; conditions: first value of the cell, read-out: G12D/C/V Cell Proliferation CTG (72 h) AsPC-1
# Protocol: AsPC-1 and SW620 CTG Assay Protocols
# AsPC-1 (human pancreatic adenocarcinoma; ATCC CRL-1682) or SW620 (human colon adenocarcinoma; ATCC CCL-227) cells were cultured in RPMI 1640 medium containing 10% fetal bovine serum and 1× penicillin/streptomycin/L-glutamine. Cells were seeded in 384-well plates at a density of 3.33E+04 cells/mL and incubated at 37° C., 5% CO2, overnight. Serially-diluted compound or DMSO was added to the cells, and plates were incubated at 37° C., 5% CO2 for 72 h. Cell viability was measured using a CellTiter-Glo® Luminescent Cell Viability Assay kit (Promega) according to the manufacturer's protocol. The luminescence signal of treated samples was normalized to DMSO control, and data were analyzed using a 4-parameter logistic model to calculate IC50 values.
# [2] = biological target: GDP-bound KRAS protein (aa 1-169), containing both G12D and C118A amino acid substitutions (Homo sapiens (Human), UniProt P01116, C118A/G12D); assay: KRAS G12D Coupled Nucleotide Exchange Assay; format: biochemical
# GDP-bound KRAS protein (aa 1-169), containing both G12D and C118A amino acid substitutions, sequence (P01116 other isoform, or with tags, fused parts or gaps G12D/C118A): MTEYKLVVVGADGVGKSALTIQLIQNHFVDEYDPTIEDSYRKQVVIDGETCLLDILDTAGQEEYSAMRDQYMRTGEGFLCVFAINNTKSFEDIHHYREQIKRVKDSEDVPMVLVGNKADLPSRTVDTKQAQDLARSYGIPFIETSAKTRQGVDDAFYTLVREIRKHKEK
# [3] = biological target: His-tagged KRAS G12D protein (Homo sapiens (Human), UniProt P01116, G12D); assay: KRAS G12D TR-FRET Assay; format: binding
# His-tagged KRAS G12D protein, sequence (P01116 other isoform, or with tags, fused parts or gaps G12D): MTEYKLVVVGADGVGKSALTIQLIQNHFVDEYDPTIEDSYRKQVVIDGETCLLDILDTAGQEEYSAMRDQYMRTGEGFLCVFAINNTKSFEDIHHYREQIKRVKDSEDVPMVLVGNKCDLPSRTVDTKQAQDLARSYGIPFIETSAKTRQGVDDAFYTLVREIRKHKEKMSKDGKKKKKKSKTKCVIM
# Summary of the method: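 Each incubation ran at room temperature: enzyme with compound for 30 minutes, peptide for one hour, and detection reagents (0.4 nM europium anti-6×His, 5 nM streptavidin-d2) for one hour more. Protein and peptide stocks were each diluted to 20 nM before addition.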
# [4] = 2 h, read-out: 2 h p-ERK (AsPC-1 cells), IC50
# [5] = read-out: KRAS G12D Coupled Exchange IC50
# [6] = read-out: KRAS G12D Binding IC50
# [7] = Homo sapiens, ASPC1, 2 h, read-out: 2 h p-ERK (AsPC-1 cells), IC50
# [8] = Homo sapiens, ASPC1, 72 h, AsPC-1, 72 h
# [9] = Homo sapiens, ASPC1, 2 h, read-out: 2 h p-ERK (AsPC-1 cells)
# [10] = Homo sapiens, ASPC1, 72 h, AsPC-1 cells (G12D), 72 h
# [11] = 2 hours compound pre-incubation, read-out: KRAS G12D Coupled Exchange
# [12] = TR-FRET, read-out: KRAS G12D Binding
"IC50 [2, 5]","IC50 [3, 6]","IC50 [1, 7]",IC50 (AsPC-1 cells; [8]),Compound,further results
6 nM,10 nM,–,–,"Cc1c2ncc3c(nc(OC[C@@]45CCCN4C[C@H](F)C5)nc13)N1CCOC[C@H](C1)OC(=O)OCCCc1c(Cl)cc3[nH]ncc3c1-2 (atropisomer, axis not shown) [Example 341, (26S)-18-chloro-4-(((2R,7aS)-2-fluorotetrahydro-1H-pyrrolo[1,2-a]pyrrol-7a(5H)-yl)methoxy)-32-methyl-23,25,28-trioxa-1,3,5,9,14,15-hexaazahexacyclo[24.4.1.1~6,10~.0~2,7~.0~11,19~.0~12,16~]dotriaconta-2,4,6,8,10(32),11,13,16,18-nonaen-24-one]","IC50 [1, 4]: 65.5 nM; IC50 (AsPC-1 cells; AsPC-1, 72 h): 889 nM"
23 nM,47 nM,–,–,"Cc1c2ncc3c(nc(OC[C@@]45CCCN4C[C@H](F)C5)nc13)N1CCOC[C@H](C1)OC(=O)OCCCc1c(Cl)cc3[nH]ncc3c1-2 (atropisomer, axis not shown) [Example 342, (26S)-18-chloro-4-(((2R,7aS)-2-fluorotetrahydro-1H-pyrrolo[1,2-a]pyrrol-7a(5H)-yl)methoxy)-32-methyl-23,25,28-trioxa-1,3,5,9,14,15-hexaazahexacyclo[24.4.1.1~6,10~.0~2,7~.0~11,19~.0~12,16~]dotriaconta-2,4,6,8,10(32),11,13,16,18-nonaen-24-one]","IC50 [1, 4]: 332 nM; IC50 (AsPC-1 cells; AsPC-1, 72 h): 3060 nM"
8 nM,12 nM,155 nM,1050 nM,C[C@@]12CCCN(C1)c1nc(OC[C@@]34CCCN3C[C@H](F)C4)nc3c(F)c(ncc13)-c1cccc3ccc(F)c(c13)CCC(F)C(=O)N2 (mixture of isomers) [Example 11],–
7 nM,11 nM,46 nM,405 nM,"C[C@@]12CCCN(C1)c1nc(OC[C@@]34CCCN3C[C@H](F)C4)nc3c(F)c(ccc13)-c1cc(O)cc3ccc(F)c(c13)CCC(F)C(=O)N2 (mixture of isomers) [Example 17, 2,2,2-trifluoroacetate salt]",–
2 nM,9 nM,59 nM,460 nM,Cc1cc2[nH]ncc2c2c1CCCCC(=O)N1CC[C@@H]3CCN(C[C@@H]31)c1nc(OC[C@@]34CCCN3C[C@H](F)C4)nc3c(F)c-2ncc13 (mixture of isomers) [Example 63],–
9 nM,15 nM,820 nM,1710 nM,CC12CCCN(C1)c1nc(OC[C@@]34CCCN3C[C@H](F)C4)nc3c(F)c(ncc13)-c1cccc3ccc(F)c(c13)CCOC(=O)N2 (mixture of isomers) [Example 76],–
3 nM,10 nM,109 nM,1180 nM,O=C1OC[C@H]2C[C@@H]2c2c(Cl)cc3[nH]ncc3c2-c2ncc3c(nc(OC[C@@]45CCCN4C[C@H](F)C5)nc3c2F)N2CCC[C@H](C2)O1 (mixture of isomers) [Example 113],–
4 nM,6 nM,19.8 nM,225 nM,O=C1N[C@@H]2CCCCN(C2)c2nc(OC[C@@]34CCCN3C[C@H](F)C4)nc3c(F)c(ncc23)-c2c(c(Cl)cc3[nH]ncc23)CCCC1F (mixture of isomers) [Example 161],–
9 nM,12 nM,95.1 nM,174 nM,O=C1CCCCc2c(Cl)cc3[nH]ncc3c2-c2ncc3c(nc(OC[C@@]45CCCN4C[C@H](F)C5)nc3c2F)N2CCOCC(C1)C2 (mixture of isomers) [Example 230],–
–,–,–,–,CC12COCCN(C1)c1nc(OC[C@@]34CCCN3C[C@H](F)C4)nc3c(F)c(ncc13)-c1c(c(Cl)cc3[nH]ncc13)CCCc1nc2no1 (mixture of isomers) [Example 379],"IC50 [1, 9]: 85.3 nM; IC50 (AsPC-1 cells; [10]): 404 nM; IC50 [2, 11]: 3 nM; IC50 [3, 12]: 9 nM"
–,–,–,–,Fc1c2ncc3c(nc(OC[C@@]45CCCN4C[C@H](F)C5)nc13)N1CCCCC(C1)c1noc(n1)CCCc1c(Cl)cc3[nH]ncc3c1-2 (mixture of isomers) [Example 382],"IC50 [1, 9]: 16.8 nM; IC50 (AsPC-1 cells; [10]): 1480 nM; IC50 [2, 11]: 3 nM; IC50 [3, 12]: 5 nM"
–,–,–,–,O=C1CCCCc2c(Cl)cc3[nH]ncc3c2-c2ncc3c(nc(OC[C@@]45CCCN4C[C@H](F)C5)nc3c2F)N2CCOCC(C2)C1O (mixture of isomers) [Example 384],"IC50 [1, 9]: 22.3 nM; IC50 (AsPC-1 cells; [10]): 109 nM; IC50 [2, 11]: 6 nM; IC50 [3, 12]: 10 nM"
–,–,133 nM,1450 nM,"CC12COCCN(C1)c1nc(OC[C@@]34CCCN3C[C@H](F)C4)nc3cc(nnc13)-c1c(c(Cl)cc3[nH]ncc13)CCCOC(=O)O2 (stereo in doubt) [Example 362, (26R)-18-chloro-4-(((2R,7aS)-2-fluorotetrahydro-1H-pyrrolo[1,2-a]pyrrol-7a(5H)-yl)methoxy)-26-methyl-23,25,28-trioxa-1,3,5,8,9,14,15-heptaazahexacyclo[24.4.1.1~6,10~.0~2,7~.0~11,19~.0~12,16~]dotriaconta-2,4,6(32),7,9,11,13,16,18-nonaen-24-one]",–
–,–,7 nM,60 nM,"Fc1c2ncc3c(nc(OC[C@@]45CCCN4C[C@H](F)C5)nc13)N1CCC[C@H](C1)c1coc(n1)CCCc1c(Cl)cc3[nH]ncc3c1-2 [Example 157, (18R)-9-chloro-31-fluoro-25-(((2R,7aS)-2-fluorotetrahydro-1H-pyrrolo[1,2-a]pyrrol-7a(5H)-yl)methoxy)-15-oxa-5,6,22,24,26,30,33-heptaazaheptacyclo[25.3.1.1~14,17~.1~18,22~.0~2,10~.0~3,7~.0~23,28~]tritriaconta-1(31),2,4,7,9,14(33),16,23,25,27,29-undecaene]",–
–,–,20.8 nM,23 nM,"O=C1OCCc2c(Cl)cc3[nH]ncc3c2-c2ncc3c(nc(OC[C@@]45CCCN4C[C@H](F)C5)nc3c2F)N2CCC[C@]3(C[C@@H](CO3)O1)C2 [Example 315, (1S,4S)-11-chloro-33-fluoro-25-(((2R,7aS)-2-fluorotetrahydro-1H-pyrrolo[1,2-a]pyrrol-7a(5H)-yl)methoxy)-2,5,7-trioxa-14,15,20,24,26,28-hexaazaheptacyclo[26.3.1.1~1,4~.1~19,23~.0~10,18~.0~13,17~.0~22,27~]tetratriaconta-10,12,15,17,19(33),20,22,24,26-nonaen-6-one]",–
2 nM,–,8.2 nM,103 nM,"[2H]C([2H])([2H])[C@@]12COCCN(C1)c1nc(OC[C@@]34CCCN3C[C@H](F)C4)nc3c(F)c(ncc13)-c1c(c(C)cc3[nH]ncc13)CCCOC(=O)O2 [Example 352, (26S)-32-fluoro-4-(((2R,7aS)-2-fluorotetrahydro-1H-pyrrolo[1,2-a]pyrrol-7a(5H)-yl)methoxy)-18-methyl-26-(~2~H_3_)methyl-23,25,28-trioxa-1,3,5,9,14,15-hexaazahexacyclo[24.4.1.1~6,10~.0~2,7~.0~11,19~.0~12,16~]dotriaconta-2,4,6,8,10(32),11,13,16,18-nonaen-24-one]",–
–,–,–,–,"O[C@@H]1CCOCCc2c(Cl)cc3[nH]ncc3c2-c2ncc3c(nc(OC[C@@]45CCCN4C[C@H](F)C5)nc3c2F)N2CCC[C@@H]1C2 [Example 404, (16R,17R)-9-Chloro-30-fluoro-24-(((2R,7aS)-2-fluorotetrahydro-1H-pyrrolo[1,2-a]pyrrol-7a(5H)-yl)methoxy)-13-oxa-5,6,21,23,25,29-hexaazahexacyclo[24.3.1.1~17,21~.0~2,10~.0~3,7~.0~22,27~]hentriaconta-1(30),2,4,7,9,22,24,26,28-nonaen-16-ol]","IC50 [1, 9]: 236 nM; IC50 (AsPC-1 cells; [10]): 1570 nM"
